Where two headings read alike, the source gives them in different places.
Assays:
[1] = biological target: recombinant USP30 (amino acids 57-517 of the human sequence) (Homo sapiens (Human), UniProt Q70CQ3); assay: In vitro USP30 biochemical assay (Ubiquitin-Rhodamine substrate); conditions: fluorescence
Procedure: In vitro biochemical assay to establish the potency of compounds for USP30 inhibition: a 384-well plate assay using a fluorophore tagged substrate of USP30 was used for in vitro screening of compounds. Each compound was tested at
10 different concentrations (0.5 to 10,000 nM) in duplicate wells. […] Data were analyzed using Graph Pad Prism software with a four-parameter (floating slope) fit to log concentration data to determine IC50s.

USP30 = USP30 (Homo sapiens (Human), UniProt Q70CQ3); assay: Dundee MALDI-TOF mass spectrometry assay (K48-linked diubiquitin cleavage); type: biochemical; conditions: USP30 25 ng/μl, K48-linked diubiquitin 5.6 μM
USP30, sequence (Q70CQ3 whole entry): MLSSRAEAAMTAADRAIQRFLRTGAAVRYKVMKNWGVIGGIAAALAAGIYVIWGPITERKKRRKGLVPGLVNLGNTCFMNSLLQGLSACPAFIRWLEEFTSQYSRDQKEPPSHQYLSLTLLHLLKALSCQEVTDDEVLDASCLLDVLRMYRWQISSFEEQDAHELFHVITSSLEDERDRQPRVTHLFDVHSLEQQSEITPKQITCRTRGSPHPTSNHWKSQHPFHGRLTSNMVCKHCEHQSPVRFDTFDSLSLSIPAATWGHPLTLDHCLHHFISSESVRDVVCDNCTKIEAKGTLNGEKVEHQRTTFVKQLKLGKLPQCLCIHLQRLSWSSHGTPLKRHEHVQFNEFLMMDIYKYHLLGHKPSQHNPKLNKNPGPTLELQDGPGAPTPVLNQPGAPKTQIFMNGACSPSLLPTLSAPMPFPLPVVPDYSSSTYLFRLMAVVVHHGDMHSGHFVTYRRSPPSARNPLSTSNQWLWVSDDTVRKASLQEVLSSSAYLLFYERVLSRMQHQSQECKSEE
Procedure: USP30 was diluted in a buffer containing 40 mM Tris, 0.01% BSA, 1 mM DTT and K48 in 40 mM Tris, 0.01% BSA.
The compounds were pre-incubated with the USP30 for 5 mins at room temp before the K48 dimer addition. The assay mixture was then incubated for 45 mins at room temp. The assay was stopped by the addition of TFA to a final concentration of 2% (v/v).
Acidified samples of the DUB assays were mixed with 0.5 mM 15N-ubiquitin and then with one part of 2% (v/v) TFA and one part of 2.5 DHAP matrix solution (7.6 mg of 2.5 DHAP in […] ethanol and […] of an aqueous 12 mg ml 1 diammonium hydrogen citrate).

[2] = […] recombinant USP30, 25 nM Ubiquitin-Rhodamine
[3] = 1.5 nM recombinant USP30, 25 nM Ubiquitin-Rhodamine

recombinant USP30 (amino acids 57-517 of the human sequence), sequence (Q70CQ3 57-517): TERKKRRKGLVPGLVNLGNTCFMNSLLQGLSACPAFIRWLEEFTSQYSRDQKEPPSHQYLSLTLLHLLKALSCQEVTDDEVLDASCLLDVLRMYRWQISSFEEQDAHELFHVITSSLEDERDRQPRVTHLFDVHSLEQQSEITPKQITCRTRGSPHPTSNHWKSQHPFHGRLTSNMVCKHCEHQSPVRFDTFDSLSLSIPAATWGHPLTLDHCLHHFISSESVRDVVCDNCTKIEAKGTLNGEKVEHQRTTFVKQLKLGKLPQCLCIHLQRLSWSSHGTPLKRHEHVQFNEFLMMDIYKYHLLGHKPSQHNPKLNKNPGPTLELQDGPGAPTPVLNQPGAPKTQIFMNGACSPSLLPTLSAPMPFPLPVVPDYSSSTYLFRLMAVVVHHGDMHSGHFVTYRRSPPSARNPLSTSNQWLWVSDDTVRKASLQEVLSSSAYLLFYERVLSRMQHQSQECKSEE

SMILES	IC50 [1, 2] [µM]	IC50 (USP30; read-out: USP30 IC50 μM (avg)) [µM]	IC50 [1, 3] [µM]	IC50 (USP30; read-out: IC50) [µM]
CC(C)C(=O)N1CCC(C[C@H](NC(=O)c2ccc(F)cc2)C(=O)Nc2ccc(S(=O)(=O)NC(C)(C)C)cc2)CC1 [Compound I-161]	< 0.05	< 0.05	–	–
CC(C)(CF)NS(=O)(=O)c1ccc(NC(=O)[C@H](CC2CCNCC2)NC(=O)c2ccc(F)cc2)cc1 [Compound I-122]	–	< 0.05	0.05 to 1	–
Cn1cncc1CNS(=O)(=O)c1ccc(NC(=O)[C@H](Cc2ccccc2)NC(=O)c2ccc(F)cc2)cc1 [Compound I-227]	–	0.05 to 1	0.05 to 1	–
COc1cc(NC(=O)[C@@H]2C[C@@H](c3ccccc3)CN2C(=O)c2ccc(F)cc2)ccc1S(=O)(=O)NC(C)(C)CO [Compound I-272]	–	0.05 to 1	0.05 to 1	–
O=C(N[C@@H](Cc1ccccc1)C(=O)Nc1ccc(S(=O)(=O)NC2(CO)CC2)cc1)c1ccc(F)cc1 [Compound I-131]	< 0.05	< 0.05	–	–
CN1CCC(C[C@H](NC(=O)c2ccc(F)cc2)C(=O)Nc2ccc(S(=O)(=O)N[C@@H]3CCOC3)nc2)CC1 [Compound I-105]	–	0.05 to 1	0.05 to 1	–
COc1cc(NC(=O)[C@H](CC2CCOCC2)NC(=O)c2ccc(F)cc2)ccc1S(=O)(=O)NC(C)(C)CO [Compound I-85]	–	0.05 to 1	0.05 to 1	–
COc1cc(NC(=O)[C@H](CC2CCOCC2)NC(=O)c2ccc(F)cc2)cnc1S(=O)(=O)NC1CCCC1 [Compound I-82]	–	< 0.05	0.05 to 1	–
COc1cc(NC(=O)[C@H](Cc2ccccc2)NC(=O)c2ccc(F)cc2)ccc1S(=O)(=O)N[C@@H](C)CO [Compound I-136]	–	< 0.05	0.05 to 1	–
COc1cc(NC(=O)[C@H](CC2CCN(C)CC2)NC(=O)c2ccc(F)cc2)ccc1S(=O)(=O)NC(C)(C)C [Compound I-84]	–	< 0.05	0.05 to 1	–
CN1CCC(C[C@H](NC(=O)c2ccc(F)cn2)C(=O)Nc2ccc(S(=O)(=O)NC(C)(C)C(F)(F)F)cc2)CC1 [Compound I-202]	< 0.05	< 0.05	–	–
C[C@H](CO)NS(=O)(=O)c1ccc(NC(=O)[C@H](Cc2ccccc2)NC(=O)c2ccc(F)cc2)cn1 [Compound I-151]	–	< 0.05	0.05 to 1	–
C[C@@H](CO)NS(=O)(=O)c1ccc(NC(=O)[C@H](Cc2ccccc2)NC(=O)c2ccc(F)cc2)cn1 [Compound I-149]	–	< 0.05	0.05 to 1	–
O=C(N[C@@H](CC1CCOCC1)C(=O)Nc1ccc(S(=O)(=O)NC2CCCC2)nc1)c1ccc(F)cc1 [Compound I-97]	< 0.05	< 0.05	–	–
CC(C)(CO)NS(=O)(=O)c1ccc(NC(=O)C(CC2CCNCC2)NC(=O)c2ccc(F)cc2)cc1 (centres unmarked) [Compound I-72]	–	0.05 to 1	0.05 to 1	–
COc1cc(NC(=O)[C@H](CC2CCOCC2)NC(=O)c2ccc(F)cc2)ccc1S(=O)(=O)NC1CCC1 [Compound I-86]	< 0.05	< 0.05	–	–
CNCCN1CCC(C[C@H](NC(=O)c2ccc(F)cc2)C(=O)Nc2ccc(S(=O)(=O)NC(C)(C)C)cc2)CC1 [Compound I-171]	< 0.05	< 0.05	–	–
CCNS(=O)(=O)c1ccc(NC(=O)[C@H](Cc2ccccc2)NC(=O)c2ccc(F)cc2)cc1O [Compound I-67, (S)—N-(1-(4-(N-ethylsulfamoyl)-3-hydroxyphenylamino)-1-oxo-3-phenylpropan-2-yl)-4-fluorobenzamide]	–	–	0.05 to 1	< 0.05
CN1CCC(C[C@H](NC(=O)c2ccc(F)cc2)C(=O)Nc2ccc(S(=O)(=O)NC3CCOCC3)cc2)CC1 [Compound I-164]	–	< 0.05	0.05 to 1	–

SMILES	IC50 [1, 2] [µM]	IC50 (USP30; read-out: USP30 IC50 μM (avg)) [µM]	IC50 [1, 3] [µM]	IC50 (USP30; read-out: IC50) [µM]
CC(C)(C)NS(=O)(=O)c1ccc(NC(=O)[C@H](Cc2ccccc2)NC(=O)c2nccs2)cc1 [Compound I-168]	–	< 0.05	0.05 to 1	–
COc1cc(NC(=O)[C@H](Cc2ccccc2)NC(=O)c2ccc(F)cc2)ccc1S(=O)(=O)N[C@H](C)CO [Compound I-137]	–	< 0.05	0.05 to 1	–
N#CN1CC[C@@H](NC(=O)[C@H](Cc2ccccc2)NC(=O)c2ccc(F)cc2)C1 [Compound I-125]	–	0.05 to 1	0.05 to 1	–
COc1cc(NC(=O)[C@H](CC2CCNCC2)NC(=O)c2ccc(F)cc2)ccc1S(=O)(=O)NC(C)(C)CO [Compound I-159]	–	0.05 to 1	0.05 to 1	–
O=C(N[C@@H](CC1CCOCC1)C(=O)Nc1ccc(S(=O)(=O)NC2CCOCC2)cc1)c1ccc(F)cc1 [Compound I-128]	–	< 0.05	0.05 to 1	–
C[C@@H](CO)NS(=O)(=O)c1ccc(NC(=O)[C@H](Cc2ccccc2)NC(=O)c2ccc(F)cc2)cc1 [Compound I-129]	–	< 0.05	0.05 to 1	–
CC(CO)(CO)NS(=O)(=O)c1ccc(NC(=O)[C@H](Cc2ccccc2)NC(=O)c2ccc(F)cc2)cn1 [Compound I-148]	–	0.05 to 1	0.05 to 1	–
Cn1ccc(N2CCC(C[C@H](NC(=O)c3ccc(F)cc3)C(=O)Nc3ccc(S(=O)(=O)NC(C)(C)C)nc3)CC2)n1 [Compound I-293]	< 0.05	< 0.05	–	–
COc1cc(NC(=O)[C@H](CC2CCNCC2)NC(=O)c2ccc(F)cc2)ccc1S(=O)(=O)NC1COC1 [Compound I-109, (S)-4-fluoro-N-(1-((3-methoxy-4-(N-(oxetan-3-yl)sulfamoyl)phenyl)amino)-1-oxo-3-(piperidin-4-yl)propan-2-yl)benzamide]	–	< 0.05	0.05 to 1	–
CC(C)(NS(=O)(=O)c1ccc(NC(=O)[C@H](Cc2ccccc2)NC(=O)c2ccc(F)cn2)cc1)C(F)(F)F [Compound I-201]	–	< 0.05	0.05 to 1	–
COCCC(C)(C)NS(=O)(=O)c1ccc(NC(=O)[C@H](Cc2ccccc2)NC(=O)c2ccc(F)cc2)cc1C(F)(F)F [Compound I-65]	–	–	0.05 to 1	< 0.05
O=C(N[C@@H](CC1CCNCC1)C(=O)Nc1ccc(S(=O)(=O)N[C@@H]2CCOC2)cc1)c1ccc(F)cc1 [Compound I-107]	–	0.05 to 1	0.05 to 1	–
CC(C)(C)NS(=O)(=O)c1cccc2c(NC(=O)[C@H](Cc3ccccc3)NC(=O)c3ccc(F)nc3)cccc12 [Compound I-182]	< 0.05	< 0.05	–	–
O=C(N[C@@H](CC1CCOCC1)C(=O)Nc1ccc(S(=O)(=O)NC2CCC2)nc1)c1ccc(F)cc1 [Compound I-91]	–	< 0.05	0.05 to 1	–
CN1CCC(C[C@H](NC(=O)c2ccc(F)cc2)C(=O)Nc2ccc(S(=O)(=O)NC3COC3)cc2)CC1 [Compound I-99]	–	0.05 to 1	0.05 to 1	–
COc1cc(NC(=O)[C@H](CC2CCN(C)CC2)NC(=O)c2ccc(F)cc2)ccc1S(=O)(=O)NC(C)(C)CO [Compound I-93]	–	0.05 to 1	0.05 to 1	–
CC(C)(C)NS(=O)(=O)c1ccc(NC(=O)[C@H](Cc2ccccc2)NC(=O)c2ccc(F)cc2)cc1C(F)(F)F [Compound I-70, (S)—N-(1-(4-(N-tert-butylsulfamoyl)-3-(trifluoromethyl)phenylamino)-1-oxo-3-phenylpropan-2-yl)-4-fluorobenzamide]	< 0.05	–	–	< 0.05
CC(=O)O[C@@H]1C[C@@H](C(=O)Nc2ccc(S(=O)(=O)NC(C)(C)C)cc2)N(C(=O)c2ccc(F)cc2)C1 [Compound I-266]	–	0.05 to 1	0.05 to 1	–

Reference: patent publication US20250162989A1, “USP30 INHIBITORS AND USES THEREOF” (Vincere Biosciences, Inc., priority 2021, published 2025)
